Measured values as given in patent publication US8232407B2, “Nitrogenous heterocyclic compounds with insecticidal activity, and the preparation and use thereof” (East China University of Science and Technology, priority 2008, dated 2012).

How the values were obtained:
Type in all cases: in vivo
Settings in all cases: in vivo
Plutella xylostella = experiment: Insecticidal activities to diamondback moth, feeding dipped leaves
Protocol: (§1) Mortality (%)=(the number of the survival aphis in control group−the number of the survival aphis in the treatment group)/the number of the survival aphis in control group×100%
(4): Insecticidal Activities to Diamondback Moth
Diamondback moth (Plutella xylostella) was tested by the way of feeding dippedleaves. Fresh cabbage leaves were immersed in above mentioned solution for 3 seconds, dried at room temperature, and fed to the tested insects. Each treatment was tested with 10 insects and repeated for 3 tumblers (3 times), while water was used as control. The number of killed insects was counted after 24 hours to calculate the mortality according to the above mentioned formula.

Nilaparvata lugens = experiment: Insecticidal activities to plant hopper, spraying method
Protocol: as §1
(2): Insecticidal Activities to Plant hopper
Plant hopper (Nilaparvata lugens), which belongs to Homoptera and has a piercing-sucking mouthpart, is a common insect for agricultural plant. Nilaparvata lugens was tested by spraying method.
Procedure: the test compound was exactly formulated with acetone to form solutions having concentrations of 500, 250, 100, 50, 25, 12.5, 6.25, 3.13, 1.57 and 0.79 ppm, respectively. Aqueous acetone solution was used as control. Each treatment was repeated for 3 tumblers (3 times). Two ml of solution was sprayed uniformly to each tumbler with a mini manual sprayer. 10 insects were introduced to every basin 6 hours before spraying. Three series of experiments were conducted. The number of killed insects was counted after 24 hours to calculate the mortality according to the above mentioned formula.

[1] = system: Pseudaletia separate Walker; experiment: Insecticidal activities to armyworm, leaf dipping and feeding
Protocol: as §1
(3): Insecticidal Activities to Armyworm
Armyworm (Pseudaletia separate Walker) was tested by the way of leaf dipping and feeding. The test compound was exactly formulated with acetone into solutions having concentrations of 500, 250, 100, 50, 25, 12.5, 6.25, 3.13 and 1.57 ppm, respectively. Aqueous acetone solution was used as control. Fresh maize leaves were immersed in the solution for 3 seconds, dried at room temperature, and fed to the tested insects. Each treatment was tested with 10 insects and repeated for 3 tumblers (3 times). The number of killed insects was counted after 24 hours to calculate the mortality according to the above mentioned formula.

Aphis craccivoral = experiment: Insecticidal activities to aphids, immersion method
Protocol: (1): Insecticidal Activities to Aphids
Aphis (Aphis craccivoral), which belongs to Homoptera and has a piercing-sucking mouthpart, is a common insect for agricultural plant. Aphis craccivoral was tested by immersion method.
Procedure: exactly weighed various samples were independently added to N,N-dimethylformamide to form 10 g/L stock solutions. The stock solutions were diluted with 0.2 mL/L aqueous Triton X-100 solution to a concentration of 500 ppm. After stably sucking on bean sprout, the wingless adult aphis together with bean sprout were dipped into 500 ppm dilution, taken out after 5 seconds, and the excess dilution was sucked off with bibulous paper. The treated wingless adult aphis was incubated in clean vessel at a constant temperature of 23° C. Each concentration was repeated for 3 times and the control group was treated with 0.2mL/L aqueous Triton X-100 solution. The number of killed aphis was counted after 24 hours and the mortality was to calculated according to the following formula:
as §1

SMILES	Plutella xylostella Mortality (%) 500 ppm (Plutella xylostella)	Nilaparvata lugens Mortality (%) 500 ppm (Nilaparvata lugens)	Pseudaletia separate Walker Mortality (%) 500 ppm [1]	Aphis craccivoral Mortality (%) 500 ppm (Aphis craccivoral)
C[N+]1=C(C(=Cc2oc(Cl)cc2Cl)[N+](=O)[O-])N(Cc2ccc(Cl)nc2)CC1.[Cl-] [Compound 252]	100%	100%	100%	100%
CN=C(C(=Cc1ccsc1)[N+](=O)[O-])N(C)Cc1cnc(Cl)s1 [Compound 221]		87%		78%
CCN=C(C(=Cc1ccoc1)[N+](=O)[O-])N(CC)Cc1ccc(Cl)nc1 [Compound 190]		100%		87%
CCN=C(C(=Cc1ccc(Br)o1)[N+](=O)[O-])N(CC)Cc1ccc(Cl)nc1 [Compound 193]		100%		89%
CCN(Cc1ccc(Cl)nc1)C(=NC)C(=Cc1ccoc1)[N+](=O)[O-] [Compound 242]		100%		100%
CN=C(NCc1ccc(Cl)nc1)C(=Cc1ccc([N+](=O)[O-])o1)[N+](=O)[O-] [Compound 153]		87%		56%
CN=C(C(=Cc1ccco1)[N+](=O)[O-])N(C)Cc1ccc(Cl)nc1 [Compound 161]		65%		100%
CCN=C(C(=Cc1ccoc1)[N+](=O)[O-])N(C)Cc1ccc(Cl)nc1 [Compound 171]		100%		93%
CN=C(C(=Cc1ccc[nH]1)[N+](=O)[O-])N(C)Cc1ccc(Cl)nc1 [Compound 170]		34%		89%
CN=C(NCc1ccc(Cl)nc1)C(=Cc1ccc(Cl)o1)[N+](=O)[O-] [Compound 154]		65%		52%
CCN(Cc1ccc(Cl)nc1)C(=NC)C(=Cc1cccs1)[N+](=O)[O-] [Compound 184]		100%		98%
CCN=C(C(=Cc1ccc([N+](=O)[O-])o1)[N+](=O)[O-])N(C)Cc1ccc(Cl)nc1 [Compound 172]		100%		96%
CCN(Cc1cnc(Cl)s1)C(=NC)C(=Cc1ccc(Cl)o1)[N+](=O)[O-] [Compound 228]		100%		100%
CCN(Cc1cnc(Cl)s1)C(=NC)C(=Cc1ccc(Cl)s1)[N+](=O)[O-] [Compound 230]		50%		75%
CN=C(NCc1ccc(Cl)nc1)C(=Cc1cccs1)[N+](=O)[O-] [Compound 156]		90%		89%
CCN(Cc1ccc(Cl)nc1)C(=NC)C(=C(C)c1ccc(Cl)s1)[N+](=O)[O-] [Compound 203]		100%		100%
CN=C(C(=C(C)c1ccc(Cl)s1)[N+](=O)[O-])N(C)C(C)c1ccc(Cl)nc1 (stereo not drawn) [Compound 215]		100%		100%
CN=C(C(=Cc1ccsc1)[N+](=O)[O-])N(C)Cc1ccc(Cl)nc1 [Compound 167]		100%		100%
CCN(Cc1ccc(Cl)nc1)C(=NC)C(=Cc1ccc(Cl)s1)[N+](=O)[O-] [Compound 187]		100%		100%
CN=C(C(=Cc1cccs1)[N+](=O)[O-])N(C)Cc1ccc(Cl)nc1 [Compound 166]		100%		98%
CCN(Cc1ccc(Cl)nc1)C(=NC)C(=C(C)c1ccoc1)[N+](=O)[O-] [Compound 196]		100%		100%
CCN(C(=NC)C(=Cc1ccc([N+](=O)[O-])o1)[N+](=O)[O-])C(C)c1ccc(Cl)nc1 (stereo not drawn) [Compound 207]		100%		94%

SMILES	Plutella xylostella Mortality (%) 500 ppm (Plutella xylostella)	Nilaparvata lugens Mortality (%) 500 ppm (Nilaparvata lugens)	Pseudaletia separate Walker Mortality (%) 500 ppm [1]	Aphis craccivoral Mortality (%) 500 ppm (Aphis craccivoral)
CCN(C(=NC)C(=Cc1cccs1)[N+](=O)[O-])C(C)c1ccc(Cl)nc1 (stereo not drawn) [Compound 210]		100%		100%
CCN(Cc1ccc(Cl)nc1)C(=NC)C(=Cc1ccoc1)[N+](=O)[O-] [Compound 180]		100%		100%
CN=C(C(=Cc1ccc(Cl)o1)[N+](=O)[O-])N(C)Cc1cnc(Cl)s1 [Compound 218]		86%		88%
CN=C(C(=Cc1ccc(Cl)o1)[N+](=O)[O-])N(C)Cc1ccc(Cl)nc1 [Compound 164]		100%		100%
CCN(Cc1ccc(Cl)nc1)C(=NC)C(=Cc1ccco1)[N+](=O)[O-] [Compound 241]		76%		68%
CN=C(C(=Cc1ccc(Br)o1)[N+](=O)[O-])N(C)Cc1ccc(Cl)nc1 [Compound 165]		100%		100%
CCN(Cc1ccc(Cl)nc1)C(=NC)C(=Cc1ccc(Cl)o1)[N+](=O)[O-] [Compound 182]		100%		100%
CN=C(C(=Cc1ccoc1)[N+](=O)[O-])N(C)Cc1ccc(Cl)nc1 [Compound 162]		100%		100%
CCN(Cc1ccc(Cl)nc1)C(=NC)C(=Cc1ccc[nH]1)[N+](=O)[O-] [Compound 188]		100%		100%
CCN(C(=NC)C(=Cc1ccc[nH]1)[N+](=O)[O-])C(C)c1ccc(Cl)nc1 (stereo not drawn) [Compound 211]		73%		73%
CCN(Cc1ccc(Cl)nc1)C(=NC)C(=Cc1ccc([N+](=O)[O-])s1)[N+](=O)[O-] [Compound 186]		100%		100%
CCN(Cc1cnc(Cl)s1)C(=NC)C(=Cc1ccc([N+](=O)[O-])s1)[N+](=O)[O-] [Compound 229]		75%		65%
CN=C(C(=Cc1ccc(Cl)s1)[N+](=O)[O-])N(C)Cc1ccc(Cl)nc1 [Compound 169]		67%		76%
CN=C(C(=Cc1cccs1)[N+](=O)[O-])N(C)Cc1cnc(Cl)s1 [Compound 220]		67%		80%
CN=C(C(=Cc1ccsc1)[N+](=O)[O-])N(C)Cc1ccc(Cl)nc1 [Compound 237]		98%		87%
CN=C(NCc1ccc(Cl)nc1)C(=Cc1ccc(Br)o1)[N+](=O)[O-] [Compound 155]		36%		67%
CN=C(NCc1ccc(Cl)nc1)C(=Cc1ccsc1)[N+](=O)[O-] [Compound 157]		97%		100%
CCN(Cc1ccc(Cl)nc1)C(=NC)C(=C(C)c1cccs1)[N+](=O)[O-] [Compound 200]		100%		100%
CN=C(C(=Cc1ccc(Br)o1)[N+](=O)[O-])N(C)Cc1cnc(Cl)s1 [Compound 219]		87%		87%
CN=C(NCc1ccc(Cl)nc1)C(=Cc1ccc(Cl)s1)[N+](=O)[O-] [Compound 159]		67%		55%
CCN(Cc1cnc(Cl)s1)C(=NC)C(=Cc1ccoc1)[N+](=O)[O-] [Compound 226]		49%		68%
CN=C(C(=Cc1ccc([N+](=O)[O-])s1)[N+](=O)[O-])N(C)Cc1cnc(Cl)s1 [Compound 222]		67%		46%
